Measurements as given in ChEMBL document CHEMBL3885861, “Open TG-GATES”.

Species: Rattus norvegicus
Experiment: Open TG-GATES - Regimen: Single
Format: toxicity, organism-based, Sprague-Dawley
Design: regimen Single, gender Male, age 6 weeks
Conditions: in vivo, po, 100 mg/kg, route gavage, dose level Low; for APTT / Bas / Eos / Fbg / Hb / Ht / Lym / MCH / MCHC / MCV / Mono / Neu / PT / Plat / RBC / Ret / WBC: tissue Blood; for KIDNEY_L / KIDNEY_R / KIDNEY_TOTAL: tissue Kidney; for LIVER: tissue Liver; for A/G / ALP / ALT / AST / BUN / CRE / Ca / Cl / DBIL / GLC / IP / K / LDH / Na / PL / RALB / TBIL / TC / TG / TP / gamma-GTP: tissue Plasma

What does the source list for `CC(C)(S)[C@@H](N)C(=O)O` [PENICILLAMINE]?
TERMINAL_BW (3 h): 201.7 g; APTT (3 h): 15.4 s; Bas (3 h): 0%; Eos (3 h): 1%; Fbg (3 h): 283 mg/dL; Hb (3 h): 13.5 g/dL; Ht (3 h): 41.8%; Lym (3 h): 79.2%; MCH (3 h): 20.5 pg; MCHC (3 h): 32.4%; MCV (3 h): 63.4 fL; Mono (3 h): 2.8%; Neu (3 h): 16.4%; PT (3 h): 15 s; Plat (3 h): 118.1 x10_4/uL; RBC (3 h): 659.6 x10_4/ul; Ret (3 h): 9.3%; WBC (3 h): 78.7 x10_2/uL; KIDNEY_L (3 h): 0.9 g; KIDNEY_R (3 h): 0.9 g; KIDNEY_TOTAL (3 h): 1.8 g; LIVER (3 h): 8.7 g; A/G (3 h): 1; ALP (3 h): 1342 IU/L; ALT (3 h): 42.6 IU/L; AST (3 h): 74.4 IU/L; BUN (3 h): 9.6 mg/dL; CRE (3 h): 0.2 mg/dL; Ca (3 h): 10.8 mg/dL; Cl (3 h): 106.6 meq/L; DBIL (3 h): 0.012 mg/dL; GLC (3 h): 186.8 mg/dL; IP (3 h): 8.2 mg/dL; K (3 h): 4.3 meq/L; LDH (3 h): 61.2 IU/L; Na (3 h): 142.2 meq/L; PL (3 h): 139 mg/dL; RALB (3 h): 2.6 g/dL; TBIL (3 h): 0.036 mg/dL; TC (3 h): 74.4 mg/dL; TG (3 h): 63.6 mg/dL; TP (3 h): 5.3 g/dL; gamma-GTP (3 h): 1 IU/L; TERMINAL_BW (6 h): 200.9 g; APTT (6 h): 18.6 s; Bas (6 h): 0%; Eos (6 h): 1%; Fbg (6 h): 310 mg/dL; Hb (6 h): 13.4 g/dL; Ht (6 h): 41.5%; Lym (6 h): 74.8%; MCH (6 h): 20.6 pg; MCHC (6 h): 32.2%; MCV (6 h): 63.9 fL; Mono (6 h): 3%; Neu (6 h): 20.6%; PT (6 h): 14.7 s; Plat (6 h): 117.7 x10_4/uL; RBC (6 h): 651 x10_4/ul; Ret (6 h): 9.1%; WBC (6 h): 91.5 x10_2/uL; KIDNEY_L (6 h): 0.9 g; KIDNEY_R (6 h): 0.9 g; KIDNEY_TOTAL (6 h): 1.8 g; LIVER (6 h): 8.2 g; A/G (6 h): 0.9; ALP (6 h): 1252 IU/L; ALT (6 h): 38 IU/L; AST (6 h): 76 IU/L; BUN (6 h): 7.2 mg/dL; CRE (6 h): 0.2 mg/dL; Ca (6 h): 10.7 mg/dL; Cl (6 h): 106.6 meq/L; DBIL (6 h): 0.01 mg/dL; GLC (6 h): 175.4 mg/dL; IP (6 h): 8.7 mg/dL; K (6 h): 4 meq/L; LDH (6 h): 63.8 IU/L; Na (6 h): 143 meq/L; PL (6 h): 138.2 mg/dL; RALB (6 h): 2.5 g/dL; TBIL (6 h): 0.038 mg/dL; TC (6 h): 78.8 mg/dL; TG (6 h): 44.6 mg/dL; TP (6 h): 5.2 g/dL; gamma-GTP (6 h): 1.2 IU/L; TERMINAL_BW (9 h): 200 g; APTT (9 h): 15.2 s; Bas (9 h): 0%; Eos (9 h): 0.8%; Fbg (9 h): 315.8 mg/dL; Hb (9 h): 13.3 g/dL; Ht (9 h): 41.2%; Lym (9 h): 78%; MCH (9 h): 20.5 pg; MCHC (9 h): 32.3%; MCV (9 h): 63.6 fL; Mono (9 h): 2.2%; Neu (9 h): 18.4%; PT (9 h): 14.3 s; Plat (9 h): 124 x10_4/uL; RBC (9 h): 647.4 x10_4/ul; Ret (9 h): 9%; WBC (9 h): 74.3 x10_2/uL; KIDNEY_L (9 h): 0.9 g; KIDNEY_R (9 h): 0.9 g; KIDNEY_TOTAL (9 h): 1.8 g; LIVER (9 h): 7.9 g; A/G (9 h): 0.9; ALP (9 h): 1373.8 IU/L; ALT (9 h): 40 IU/L; AST (9 h): 68.6 IU/L; BUN (9 h): 9.6 mg/dL; CRE (9 h): 0.2 mg/dL; Ca (9 h): 10.7 mg/dL; Cl (9 h): 106.4 meq/L; DBIL (9 h): 0.008 mg/dL; GLC (9 h): 166.2 mg/dL; IP (9 h): 10 mg/dL; K (9 h): 4 meq/L; LDH (9 h): 54.4 IU/L; Na (9 h): 143.2 meq/L; PL (9 h): 137 mg/dL; RALB (9 h): 2.6 g/dL; TBIL (9 h): 0.034 mg/dL; TC (9 h): 79.6 mg/dL; TG (9 h): 45 mg/dL; TP (9 h): 5.4 g/dL; gamma-GTP (9 h): 1.2 IU/L; TERMINAL_BW (24 h): 219.1 g; APTT (24 h): 16.6 s; Bas (24 h): 0%; Eos (24 h): 0.8%; Fbg (24 h): 272.4 mg/dL; Hb (24 h): 13 g/dL; Ht (24 h): 40%; Lym (24 h): 78.6%; MCH (24 h): 20.8 pg; MCHC (24 h): 32.4%; MCV (24 h): 64.2 fL; Mono (24 h): 2.8%; Neu (24 h): 16.8%; PT (24 h): 14.2 s; Plat (24 h): 125.3 x10_4/uL; RBC (24 h): 623.4 x10_4/ul; Ret (24 h): 8%; WBC (24 h): 90.1 x10_2/uL; KIDNEY_L (24 h): 0.9 g; KIDNEY_R (24 h): 0.9 g; KIDNEY_TOTAL (24 h): 1.9 g; LIVER (24 h): 10.4 g; A/G (24 h): 0.9; ALP (24 h): 1649.2 IU/L; ALT (24 h): 45 IU/L; AST (24 h): 70.4 IU/L; BUN (24 h): 13.4 mg/dL; CRE (24 h): 0.2 mg/dL; Ca (24 h): 11 mg/dL; Cl (24 h): 104.4 meq/L; DBIL (24 h): 0.012 mg/dL; GLC (24 h): 178.6 mg/dL; IP (24 h): 7.9 mg/dL; K (24 h): 4 meq/L; LDH (24 h): 81.6 IU/L; Na (24 h): 143.2 meq/L; PL (24 h): 155.2 mg/dL; RALB (24 h): 2.7 g/dL; TBIL (24 h): 0.026 mg/dL; TC (24 h): 81.6 mg/dL; TG (24 h): 93.6 mg/dL; TP (24 h): 5.5 g/dL; gamma-GTP (24 h): 1 IU/L
